How the values were obtained:
BALB/c mice = test: In vivo mRNA delivery in mice with DNPs, whole-body bioluminescence imaging (IVIS)
Experimental: (§1) The exposure time was 1 min.
Luminescence characterization for in vivo transfection experiments employed bioluminescence imaging with an IVIS Spectrum imaging system (PerkinElmer, Waltham, MA). Mice were anesthetized with 3% of isoflurane (Piramal Healthcare Limited) and intraperitoneally (i.p.) administered with D-luciferin (Regis Technologies) at a dose of 150 mg/kg of body weight. Ten minutes post administration of D-luciferin, mice were placed on the imaging platform while being maintained on isoflurane via a nose cone and imaged using an exposure time of 60 seconds. […] To quantify luminescent flux, an oval ROI was placed over each organ of interest and analyzed.
(§2) Tissue luminescence signal was measured on the IVIS imaging system using an exposure time of 60 seconds using medium binning (binning=8) to ensure that the signal obtained was within operative detection range. […] Bioluminescence imaging was performed as described above.
Luminescence Characterization for In Vivo Transfection Experiments: bioluminescence imaging was performed with an IVIS Spectrum imaging system (PerkinElmer, Waltham, MA).

lung = test: In vivo mRNA delivery, IVIS imaging of organs: lung; design: species or system mice; key to Organs with luminescence: lung: strong: Strong meant the luminescence intensity in that organ was relatively high, compared to other organs; weak: Weak meant the luminescence intensity in that organ was relatively low, compared to other organs; details: for Organs with luminescence: lung (weak/strong): Table 14; for Organs with luminescence: lung: Table 17, IVIS, 4-6 h after injection, intensity relative to other organs
Experimental: as §1, §2
(§3) Tissue luminescence signal was measured on the IVIS imaging system using a certain exposure time (60, 30 or 15 seconds) and medium binning (binning=8) to ensure that the signal obtained was within operative detection range.

liver = test: In vivo mRNA delivery, IVIS imaging of organs: liver; design: species or system mice; key to Organs with luminescence: liver: strong: Strong meant the luminescence intensity in that organ was relatively high, compared to other organs; weak: Weak meant the luminescence intensity in that organ was relatively low, compared to other organs; details: for Organs with luminescence: liver (weak/strong): Table 14; for Organs with luminescence: liver: Table 17, mice, IVIS, 4-6 h after injection, intensity relative to other organs
Experimental: as §1, §2, §3

[1] = Dimensions (size, PDI) of DNPs co-assembled from IAJDs and Luc-mRNA by DLS; format: physicochemical
Outline: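 IAJDs (80 mg/mL ethanol stock) rapidly injected into Luc-mRNA (4.0 mg/mL stock) diluted in 10 mM acetate buffer pH 4.0, then vortexed 5 s. Size and polydispersity of resulting DNPs measured by DLS (633 nm laser, 175° detection) at 23 °C.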

[2] = Stability of DNPs by DLS after storage at 5° C.; format: physicochemical; design: key to Original size distribution type (DLS curve) / Size distribution type (DLS curve): U: DLS curve showed unimodal size distribution; B: DLS curve showed bimodal size distribution; M: DLS curve showed multimodal size distribution
Experimental: (§4) The stability of the DNPs as assayed by DLS. All the samples are prepared in acetate buffer. The stabilities of the constructs were ranked: Excellent (in bold)—the original sizes and distribution remains almost the same after storage; Good—the original relatively big sizes became smaller or broad size distribution became narrower; Not stable—the original relatively big sizes or broad size distribution remained almost the similar level, or the original relatively small sizes became bigger or narrow size distribution became broader.

[3] = Stability of DNPs by DLS after storage at 5° C.; format: physicochemical; design: key: Excellent: the original sizes and distribution types remained almost the same after storage; Good: the original sizes and distribution types changed slightly (size difference was less than 100 nm) or the original size remained almost the same but the DLS curve showed more size distributions after storage; details: after 75 days at 5° C.
Experimental: as §4

[4] = Table 12, DNPs, IAJD 4 mg/mL + Luc-mRNA 0.10 mg/mL, acetate buffer 10 mM pH 4.0
[5] = Table 13, DNPs, IAJD 4 mg/mL + Luc-mRNA 0.10 mg/mL, acetate buffer pH 4.0
[6] = Table 14, DNPs, IAJD 4 mg/mL + Luc-mRNA 0.10 mg/mL, acetate buffer pH 4.0
[7] = Table 17, DNPs used in vivo, IAJD 4 mg/mL, Luc-mRNA 0.10 mg/mL, acetate pH 4.0
[8] = Table 16, DNPs from IAJD 4 mg/mL and Luc-mRNA 0.10 mg/mL by injection in acetate buffer (10 mM, pH 4.0)
[9] = after 75 days at 5° C., IAJD 4.0 mg/mL + Luc-mRNA 0.1 mg/mL, acetate buffer

PDI [1, 4]	Size (d, nm) [1, 4] [nm]	PDI [1, 5]	Size (d, nm) [1, 5] [nm]	PDI [1, 6]	Size (d, nm) [1, 6] [nm]	PDI [1, 7]	Size (d, nm) [1, 7] [nm]	Compound	In vivo activity (total flux, p/s) (BALB/c mice; Table 19, nonsymmetric IAJDs)	Organs with luminescence: lung (weak/strong) (lung; imaging 6 h after injection)	Organs with luminescence: lung (lung; mice)	Organs with luminescence: liver (weak/strong) (liver; imaging 6 h after injection)	Organs with luminescence: liver (liver)	other results
0.287	111	0.287	111	0.287	111	0.287	111	CCCCCCCCCCCCCCCCCCOc1cc(COC(=O)CCCN2CCN(C)CC2)cc(OCCCCCCCCCCC)c1 [IAJD 81, 3-(Octadecyloxy)-5-(undecyloxy)benzyl 4-(4-methylpiperazin-1-yl)butanoate]	2.32 × 10^7 p/s	Lung (weak),	Lung (weak),	liver (strong),	liver (strong),	In vivo activity (total flux, p/s) (BALB/c mice; Table 20, nonsymmetric IAJDs and MC3-Luc-mRNA): 2.32 × 10^7 p/s
0.234	91	0.234	91	0.234	91	0.234	91	CCCCCCCCCCCCCCCCOc1cc(COC(=O)CCCN2CCN(C)CC2)cc(OCCCCCCCCCCC)c1 [IAJD 86, 3-(Hexadecyloxy)-5-(undecyloxy)benzyl 4-(4-methylpiperazin-1-yl)butanoate]	4.73 × 10^7 p/s	–	Lung (weak),	–	liver (strong),	Organs with luminescence: lung (weak/strong) (lung; imaging 5 h after injection): Lung (weak),; Organs with luminescence: liver (weak/strong) (liver; imaging 5 h after injection): liver (strong),
0.352	105	0.352	105	0.352	105	–	–	CCCCC(CC)COC(=O)CCCCOc1cc(COC(=O)CCCN2CCN(CCO)CC2)cc(OCCCCC(=O)OCC(CC)CCCC)c1 (stereo not shown) [IAJD 95]	–	Lung (weak),	–	liver (weak),	–	–
0.402	139	0.402	139	0.402	139	–	–	CCCCC(CC)COc1cc(COC(=O)CCCN2CCN(C)CC2)cc(OCC(CC)CCCC)c1OCC(CC)CCCC (stereo not shown) [IAJD 96, 3,4,5-Tris((2-ethylhexyl)oxy)benzyl 4-(4-methylpiperazin-1-yl)butanoate]	–	–	–	–	–	Organs with luminescence: lung (weak/strong) (lung; imaging 5 h after injection): Lung (weak),; Organs with luminescence: liver (weak/strong) (liver; imaging 5 h after injection): liver (weak),
0.482	204	0.482	204	0.482	204	–	–	CCCCC(CC)COc1cc(COC(=O)CCCN2CCN(CCO)CC2)cc(OCC(CC)CCCC)c1OCC(CC)CCCC (stereo not shown) [IAJD 97, 3,4,5-Tris((2-ethylhexyl)oxy)benzyl 4-(4-(2-hydroxyethyl)piperazin-1-yl)butanoate]	–	–	–	–	–	Organs with luminescence: lung (weak/strong) (lung; imaging 5 h after injection): Lung (weak),; Organs with luminescence: liver (weak/strong) (liver; imaging 5 h after injection): liver (weak),
0.221	187	0.221	187	0.221	187	–	–	CCCCCCCCCCCCCCCCCCOc1cc(COC(=O)CCCN2CCN(C)CC2)cc(OCCCCCCCCCCCCCCCCCC)c1 [IAJD 98, 3,5-Bis(octadecyloxy)benzyl 4-(4-methylpiperazin-1-yl)butanoate]	–	Lung (weak),	–	liver (weak),	–	–
0.571	277	0.571	277	0.571	277	–	–	CCCCCCCCCCCCCCCCCCOc1cc(COC(=O)CCCN2CCN(CCO)CC2)cc(OCCCCCCCCCCCCCCCCCC)c1 [IAJD 99, 3,5-Bis(octadecyloxy)benzyl 4-(4-(2-hydroxyethyl)piperazin-1-yl)butanoate]	–	Lung (weak),	–	liver (weak),	–	–
0.294	94	0.294	94	0.294	94	0.294	94	CCCCCCCCCCCCCCOc1cc(COC(=O)CCCN2CCN(C)CC2)cc(OCCCCCCCCCCC)c1 [IAJD 105, 3-(Tetradecyloxy)-5-(undecyloxy)benzyl 4-(4-methylpiperazin-1-yl)butanoate]	4.74 × 10^7 p/s	Lung (weak),	Lung (weak),	liver (strong),	liver (strong),	–
0.275	105	0.275	105	0.275	105	0.275	105	CCCCCCCCCCCCCCCCOc1cc(COC(=O)CCCN2CCN(C)CC2)cc(OCCCCCCCCCCCC)c1 [IAJD 106, 3-(Dodecyloxy)-5-(hexadecyloxy)benzyl 4-(4-methylpiperazin-1-yl)butanoate]	3.48 × 10^7 p/s	Lung (weak),	Lung (weak),	liver (weak),	liver (weak),	–
0.279	146	0.279	146	0.279	146	0.279	146	CCCCCCCCCCCCCCCCCCOc1cc(COC(=O)CCCN2CCN(C)CC2)cc(OCCCCCCCCCCCC)c1 [IAJD 107, 3-(Dodecyloxy)-5-(octadecyloxy)benzyl 4-(4-methylpiperazin-1-yl)butanoate]	2.19 × 10^7 p/s	Lung (weak),	Lung (weak),	liver (weak),	liver (weak),	–
–	–	–	–	–	–	0.274	111	CCCCCCCCCCCCOc1cc(COC(=O)c2cc(OCCOCCOCCCC(=O)CCCN3CCCCC3)c(OCCOCCOCCOCc3ccccc3)c(OCCOCCOCCOC(=O)CCCN3CCCCC3)c2)cc(OCCCCCCCCCCCC)c1 [IAJD 110]	–	–	Lung (strong)	–	–	activity in lung (in words) (lung; mice, Luc-mRNA DNPs): very high activity to lung; PDI [1, 8]: 0.274; Size (d, nm) [1, 8]: 111 nm; pH Sample ([2]; DNPs: IAJD 4.0 mg/mL + Luc-mRNA 0.1 mg/mL, injection in acetate buffer pH 4.00): 4.91; Size distribution type (DLS curve) ([2]; after 75 days at 5° C.): (U); PDI [2, 9]: 0.222; Size (d, nm) [2, 9]: 103 nm; Original size distribution type (DLS curve) ([2]; before storage, IAJD 4.0 mg/mL + Luc-mRNA 0.1 mg/mL, acetate buffer pH 4.00): (U); Ranking of stability [3]: Excellent

— patent US20240252677A1, “ONE-COMPONENT DELIVERY SYSTEM FOR NUCLEIC ACIDS” (The Trustees of the University of Pennsylvania, priority 2021, published 2024)
